Data as given in ChEMBL document CHEMBL3797052 (Eur J Med Chem, 2016).

Legend:
[1] = Antiproliferative activity against human OVCAR8 cells assessed as cell growth at 10^-6 M after 48 hrs by sulforhodamine B assay; format: functional; settings: OVCAR-8, 48 h, read-out: Activity
[2] = Antiproliferative activity against human NCI-ADR-RES cells assessed as cell growth at 10^-6 M after 48 hrs by sulforhodamine B assay; format: functional; settings: read-out: Activity
NCI-H460 = assay: Antiproliferative activity against human NCI-H460 cells assessed as cell growth at 10^-7 M after 48 hrs by sulforhodamine B assay; format: functional; settings: NCI-H460, 48 h, read-out: Activity
[3] = Antiproliferative activity against human COLO205 cells assessed as cell growth at 10^-4 M after 48 hrs by sulforhodamine B assay; format: functional; settings: COLO 205, 48 h, read-out: Activity
[4] = Antiproliferative activity against human HCT116 cells assessed as cell growth at 10^-8 M after 48 hrs by sulforhodamine B assay; format: functional; settings: HCT-116, 48 h, read-out: Activity
[5] = Antiproliferative activity against human RPMI8226 cells assessed as cell growth at 10^-8 M after 48 hrs by sulforhodamine B assay; format: functional; settings: RPMI-8226, 48 h, read-out: Activity
EKVX = assay: Antiproliferative activity against human EKVX cells assessed as cell growth at 10^-4 M after 48 hrs by sulforhodamine B assay; format: functional; settings: read-out: Activity
NCI-H23 = assay: Antiproliferative activity against human NCI-H23 cells assessed as cell growth at 10^-7 M after 48 hrs by sulforhodamine B assay; format: functional; settings: NCI-H23, 48 h, read-out: Activity
[6] = Antiproliferative activity against human HOP62 cells assessed as cell growth at 10^-8 M after 48 hrs by sulforhodamine B assay; format: functional; settings: HOP-62, 48 h, read-out: Activity
[7] = Antiproliferative activity against human HCC2998 cells assessed as cell growth at 10^-7 M after 48 hrs by sulforhodamine B assay; format: functional; settings: HCC 2998, 48 h, read-out: Activity
CCRF-CEM = assay: Antiproliferative activity against human CCRF-CEM cells assessed as growth inhibition after 48 hrs by sulforhodamine B assay; format: functional; settings: for CC50: read-out: LC50 (the source's name)
MDA-MB-435 [8] = assay: Antiproliferative activity against human MDA-MB-435 cells assessed as growth inhibition after 48 hrs by sulforhodamine B assay; format: functional; settings: MDA-MB-435, 48 h; for CC50: read-out: LC50 (the source's name)
[9] = Antiproliferative activity against human HCT116 cells assessed as cell growth at 10^-6 M after 48 hrs by sulforhodamine B assay; format: functional; settings: HCT-116, 48 h, read-out: Activity
[10] = Antiproliferative activity against human OVCAR8 cells assessed as cell growth at 10^-8 M after 48 hrs by sulforhodamine B assay; format: functional; settings: OVCAR-8, 48 h, read-out: Activity
[11] = Antiproliferative activity against human HCT116 cells assessed as cell growth at 10^-7 M after 48 hrs by sulforhodamine B assay; format: functional; settings: HCT-116, 48 h, read-out: Activity
[12] = Antiproliferative activity against human DU145 cells assessed as cell growth at 10^-4 M after 48 hrs by sulforhodamine B assay; format: functional; settings: DU-145, 48 h, read-out: Activity
[13] = Antiproliferative activity against human UACC62 cells assessed as cell growth at 10^-7 M after 48 hrs by sulforhodamine B assay; format: functional; settings: UACC-62, 48 h, read-out: Activity
M14 = assay: Antiproliferative activity against human M14 cells assessed as cell growth at 10^-6 M after 48 hrs by sulforhodamine B assay; format: functional; settings: M14, 48 h, read-out: Activity
MDA-MB-435 [14] = assay: Antiproliferative activity against human MDA-MB-435 cells assessed as cell growth at 10^-6 M after 48 hrs by sulforhodamine B assay; format: functional; settings: MDA-MB-435, 48 h, read-out: Activity
A498 = assay: Antiproliferative activity against human A498 cells assessed as cell growth at 10^-8 M after 48 hrs by sulforhodamine B assay; format: functional; settings: A498, 48 h, read-out: Activity
[15] = Antiproliferative activity against human HCT15 cells assessed as cell growth at 10^-4 M after 48 hrs by sulforhodamine B assay; format: functional; settings: HCT-15, 48 h, read-out: Activity
SN12C = assay: Antiproliferative activity against human SN12C cells assessed as cell growth at 10^-8 M after 48 hrs by sulforhodamine B assay; format: functional; settings: read-out: Activity
NCI-H522 [16] = assay: Antiproliferative activity against human NCI-H522 cells assessed as cell growth at 10^-8 M after 48 hrs by sulforhodamine B assay; format: functional; settings: NCI-H522, 48 h, read-out: Activity
[17] = Antiproliferative activity against human UACC257 cells assessed as cell growth at 10^-6 M after 48 hrs by sulforhodamine B assay; format: functional; settings: UACC-257, 48 h, read-out: Activity
[18] = Antiproliferative activity against human HL-60(TB) cells assessed as growth inhibition after 48 hrs by sulforhodamine B assay; format: functional; settings: HL-60, 48 h; for CC50: read-out: LC50 (the source's name)
[19] = Antiproliferative activity against human Hs 578T cells assessed as growth inhibition after 48 hrs by sulforhodamine B assay; format: functional; settings: for CC50: read-out: LC50 (the source's name)
NCI-H322M = assay: Antiproliferative activity against human NCI-H322M cells assessed as growth inhibition after 48 hrs by sulforhodamine B assay; format: functional
[20] = Antiproliferative activity against human SNB19 cells assessed as growth inhibition after 48 hrs by sulforhodamine B assay; format: functional; settings: SNB-19, 48 h
MCF7 = assay: Antiproliferative activity against human MCF7 cells assessed as cell growth at 10^-8 M after 48 hrs by sulforhodamine B assay; format: functional; settings: MCF7, 48 h, read-out: Activity
NCI-H522 [21] = assay: Antiproliferative activity against human NCI-H522 cells assessed as cell growth at 10^-7 M after 48 hrs by sulforhodamine B assay; format: functional; settings: NCI-H522, 48 h, read-out: Activity
[22] = Antiproliferative activity against human OVCAR5 cells assessed as cell growth at 10^-6 M after 48 hrs by sulforhodamine B assay; format: functional; settings: OVCAR-5, 48 h, read-out: Activity
[23] = Antiproliferative activity against human MOLT4 cells assessed as cell growth at 10^-4 M after 48 hrs by sulforhodamine B assay; format: functional; settings: MOLT-4, 48 h, read-out: Activity
NCI-H226 = assay: Antiproliferative activity against human NCI-H226 cells assessed as cell growth at 10^-7 M after 48 hrs by sulforhodamine B assay; format: functional; settings: NCI-H226, 48 h, read-out: Activity
[24] = Antiproliferative activity against human UO31 cells assessed as cell growth at 10^-7 M after 48 hrs by sulforhodamine B assay; format: functional; settings: UO-31, 48 h, read-out: Activity
[25] = Antiproliferative activity against human SNB19 cells assessed as cell growth at 10^-4 M after 48 hrs by sulforhodamine B assay; format: functional; settings: SNB-19, 48 h, read-out: Activity
MDA-MB-435 [26] = assay: Antiproliferative activity against human MDA-MB-435 cells assessed as cell growth at 10^-8 M after 48 hrs by sulforhodamine B assay; format: functional; settings: MDA-MB-435, 48 h, read-out: Activity
[27] = target: RAF proto-oncogene serine/threonine-protein kinase (Homo sapiens, UniProt P04049); assay: Inhibition of human C-RAF measured after 40 mins by scintillation counting
Chain of RAF proto-oncogene serine/threonine-protein kinase (P04049 whole entry): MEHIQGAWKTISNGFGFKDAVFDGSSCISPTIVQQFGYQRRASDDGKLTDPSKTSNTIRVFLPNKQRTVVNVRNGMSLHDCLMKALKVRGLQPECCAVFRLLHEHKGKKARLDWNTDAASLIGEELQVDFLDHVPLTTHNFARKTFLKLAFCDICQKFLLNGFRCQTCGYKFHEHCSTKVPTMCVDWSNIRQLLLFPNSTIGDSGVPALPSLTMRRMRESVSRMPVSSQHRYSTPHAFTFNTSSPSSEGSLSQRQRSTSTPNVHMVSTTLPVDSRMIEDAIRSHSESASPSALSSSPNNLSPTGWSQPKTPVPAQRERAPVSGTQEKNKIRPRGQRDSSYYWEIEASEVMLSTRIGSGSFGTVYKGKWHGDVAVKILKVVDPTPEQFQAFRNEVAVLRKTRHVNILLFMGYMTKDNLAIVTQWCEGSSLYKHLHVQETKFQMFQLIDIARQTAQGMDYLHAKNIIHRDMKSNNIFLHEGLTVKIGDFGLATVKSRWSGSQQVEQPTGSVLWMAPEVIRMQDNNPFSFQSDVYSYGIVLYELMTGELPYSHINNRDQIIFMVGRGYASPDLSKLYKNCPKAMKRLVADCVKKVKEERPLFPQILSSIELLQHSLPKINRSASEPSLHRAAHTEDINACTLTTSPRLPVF

SMILES: CNC(=O)c1cc(Oc2ccc3nc(NC(=O)Nc4ccc(Cl)c(C(F)(F)F)c4)sc3c2)ccn1
- growth at 1 µM [1]: 103%
- growth at 1 µM [2]: 94%
- growth at 0.1 µM (NCI-H460): 103%
- growth at 100 µM [3]: 53%
- growth at 0.01 µM [4]: 101%
- growth at 0.01 µM [5]: 100%
- growth at 100 µM (EKVX): -32%
- growth at 0.1 µM (NCI-H23): 97%
- growth at 0.01 µM [6]: 92%
- growth at 0.1 µM [7]: 108%
- TGI (CCRF-CEM): > 100 µM
- CC50 (CCRF-CEM): > 100 µM
- GI50 (MDA-MB-435 [8]): 1.9 µM
- CC50 (MDA-MB-435 [8]): > 100 µM
- growth at 1 µM [9]: 80%
- growth at 0.01 µM [10]: 105%
- growth at 0.1 µM [11]: 99%
- growth at 100 µM [12]: 17%
- growth at 0.1 µM [13]: 91%
- growth at 1 µM (M14): 83%
- growth at 1 µM (MDA-MB-435 [14]): 83%
- growth at 0.01 µM (A498): 95%
- growth at 100 µM [15]: 23%
- growth at 0.01 µM (SN12C): 97%
- growth at 0.01 µM (NCI-H522 [16]): 98%
- growth at 1 µM [17]: 90%
- GI50 [18]: > 100 µM
- TGI [18]: > 100 µM
- CC50 [18]: > 100 µM
- GI50 [19]: 1.53 µM
- TGI [19]: 6.27 µM
- CC50 [19]: > 100 µM
- GI50 (NCI-H322M): 2.62 µM
- LC50 (50% lethal concentration) (NCI-H322M): > 100 µM
- GI50 [20]: 2.77 µM
- LC50 (50% lethal concentration) [20]: > 100 µM
- TGI [20]: 10.2 µM
- growth at 0.01 µM (MCF7): 92%
- growth at 0.1 µM (NCI-H522 [21]): 95%
- growth at 1 µM [22]: 90%
- growth at 100 µM [23]: 55%
- growth at 0.1 µM (NCI-H226): 99%
- growth at 0.1 µM [24]: 107%
- growth at 100 µM [25]: -49%
- growth at 0.01 µM (MDA-MB-435 [26]): 91%
- IC50 [27]: 0.111 µM

SMILES: CNC(=O)c1cc(Oc2ccc3nc(NC(=O)c4cc(C(F)(F)F)cc(C(F)(F)F)c4)sc3c2)ccn1
- growth at 1 µM [1]: 90%
- growth at 1 µM [2]: 96%
- growth at 0.1 µM (NCI-H460): 105%
- growth at 100 µM [3]: -88%
- growth at 0.01 µM [4]: 111%
- growth at 0.01 µM [5]: 97%
- growth at 100 µM (EKVX): -27%
- growth at 0.1 µM (NCI-H23): 95%
- growth at 0.01 µM [6]: 99%
- growth at 0.1 µM [7]: 108%
- GI50 (CCRF-CEM): 3.47 µM
- TGI (CCRF-CEM): > 100 µM
- CC50 (CCRF-CEM): > 100 µM
- GI50 (MDA-MB-435 [8]): 3.28 µM
- TGI (MDA-MB-435 [8]): 20.4 µM
- CC50 (MDA-MB-435 [8]): > 100 µM
- growth at 1 µM [9]: 99%
- growth at 0.01 µM [10]: 97%
- growth at 0.1 µM [11]: 104%
- growth at 100 µM [12]: -65%
- growth at 0.1 µM [13]: 86%
- growth at 1 µM (M14): 94%
- growth at 1 µM (MDA-MB-435 [14]): 96%
- growth at 0.01 µM (A498): 69%
- growth at 100 µM [15]: -29%
- growth at 0.01 µM (SN12C): 98%
- growth at 0.01 µM (NCI-H522 [16]): 90%
- growth at 1 µM [17]: 101%
- GI50 [18]: 2.49 µM
- TGI [18]: 5.11 µM
- CC50 [18]: > 100 µM
- GI50 [19]: 3.15 µM
- TGI [19]: 13.3 µM
- CC50 [19]: > 100 µM
- GI50 (NCI-H322M): 3.7 µM
- LC50 (50% lethal concentration) (NCI-H322M): > 100 µM
- TGI (NCI-H322M): 19.8 µM
- GI50 [20]: 3.76 µM
- LC50 (50% lethal concentration) [20]: > 100 µM
- TGI [20]: 22.8 µM
- growth at 0.01 µM (MCF7): 93%
- growth at 0.1 µM (NCI-H522 [21]): 109%
- growth at 1 µM [22]: 80%
- growth at 100 µM [23]: -7%
- growth at 0.1 µM (NCI-H226): 99%
- growth at 0.1 µM [24]: 86%
- growth at 100 µM [25]: -28%
- growth at 0.01 µM (MDA-MB-435 [26]): 101%
- IC50 [27]: 0.695 µM
